Test results taken from ChEMBL document CHEMBL1157221, “14,15-secopregnane derivatives from the leaves of Solenostemma argel” (J Nat Prod, 2006).
Calls of active or inactive are those of the source. The rule behind the calls is not given here.

System: RAW264.7
Assay: Antiinflammatory activity against mouse RAW264.7 cells assessed as stimulation LPS-induced TNFalpha release at 100 uM pretreated for 30 mins before LPS challenge by ELISA
Assay type: functional, cell-based

| Compound | Activity |
| --- | --- |
| COC(=O)C[C@H](O[C@H]1CC[C@@]2(C)C(=CC[C@@H]3[C@@H]2CC[C@]2(C)[C@@H]4[C@H]5CO[C@@]4(C)O[C@@]32O5)C1)O[C@H](C)C(=O)O | inactive |
| CO[C@@H]1[C@@H](O)[C@H](O[C@@H]2[C@@H](C)O[C@@H](O[C@H]3[C@@H](OC)C[C@H](O[C@H]4[C@H](O)C[C@H](O[C@H]5CC[C@@]6(C)C(=CC[C@@H]7[C@@H]6CC[C@]6(C)[C@@H]8[C@H]9CO[C@@]8(C)O[C@@]76O9)C5)O[C@@H]4C)O[C@@H]3C)C[C@H]2OC)O[C@H](C)[C@H]1O[C@@H]1O[C@H](CO)[C@@H](O)[C@H](O)[C@H]1O | Active |
| CO[C@H]1C[C@H](O[C@H]2CC[C@@]3(COC(C)=O)C(=CC[C@@H]4[C@@H]3CC[C@]3(C)[C@@H]5[C@H]6CO[C@@]5(C)O[C@@]43O6)C2)O[C@H](C)[C@H]1O[C@H]1C[C@H](OC)[C@H](O[C@H]2C[C@@H](O)[C@H](O[C@H]3C[C@@H](OC)[C@H](O[C@@H]4O[C@H](CO)[C@@H](O)[C@H](O)[C@H]4O)[C@@H](C)O3)[C@@H](C)O2)[C@@H](C)O1 | Active |
| CO[C@@H]1[C@@H](O)[C@H](O[C@@H]2[C@@H](C)O[C@@H](O[C@H]3[C@@H](OC)C[C@H](O[C@@H]4[C@@H](C)O[C@@H](O[C@H]5CC[C@@]6(CO)C(=CC[C@@H]7[C@@H]6CC[C@]6(C)[C@@H]8[C@H]9CO[C@@]8(C)O[C@@]76O9)C5)C[C@H]4OC)O[C@@H]3C)C[C@H]2OC)O[C@H](C)[C@H]1O[C@@H]1O[C@H](CO)[C@@H](O)[C@H](O)[C@H]1O | Active |
